In US11958830B2, “Protease inhibitors, preparation, and uses thereof” (WESTLAKE PHARMACEUTICALS (HANGZHOU) CO., LTD., priority 2021, dated 2024):

Legend:
[1] = molecular target: T1, SARS-CoV-2 3CLpro (Severe acute respiratory syndrome coronavirus 2, UniProt P0DTD1); test: FRET-based continuous kinetic enzymatic assay of 3CLpro; type: biochemical; details: 100 nM 3CLpro, 100 μM fluorogenic substrate, 1 hour pre-incubation, 30° C.; read-out: IC50 against SARS-CoV-2 3CLpro
T1 construct: made in house; host or cells: E. coli

[2] = tested on: SARS-CoV-2; test: microbe, parasite or virus in culture; type: cell-based; details: Severe acute respiratory syndrome coronavirus 2, A549, read-out: IC50, anti-SARS-CoV-2 activity in A549 cells

| Structure (SMILES) | IC50 [1] [µM] | IC50 [2] [µM] |
| --- | --- | --- |
| CNC(=O)[C@@H](Cc1cccc(F)c1)NC(=O)C1CN(C(=O)c2cncc3cccc(O)c23)CCN1Cc1ccc(Cl)cc1Cl (stereo partly shown) [Compound 1] | 0.165 | 0.848 |
| CNC(=O)c1cc(Br)cc([N+](=O)[O-])c1N1CC[C@@]2(CN(C(=O)c3cncc4cc(O)ccc34)C[C@@H]2c2ccccc2)C1 [Compound 8] | 0.0495 | 0.0388 |
